In brackets after ≈: the same amount, converted by molar mass.
Assays:
Format in all cases: cell-based
[1] = system: S. aureus (UAMS-1625 strain); experiment: MIC by broth microdilution, S. aureus; conditions: Staphylococcus aureus, 20 h, read-out: MIC S. aureus
Summary of the method: (§1)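 CLSI broth microdilution in cation-adjusted Mueller Hinton broth, 5×10^5 CFU/mL inoculum; ADC (5%) added for M. avium and M. xenopi (M. xenopi inoculum from 7H9+ADC liquid culture). Two-fold series 16–0.016 μg/mL (M. abscessus, M. avium), 1–6×10^−5 μg/mL (M. xenopi); S. aureus 35° C 20 h, M. abscessus 30° C 4 days, others 37° C ≥7 days; MIC = lowest concentration without visible growth.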

[2] = system: A. baumannii (HUMC1 strain); experiment: MIC by broth microdilution, A. baumannii (RPMI + 10% FCS); conditions: Acinetobacter baumannii; HUMC1 strain; RPMI medium + 10% FCS; 35° C., 20 hours; read-out: MIC A. baumannii
[3] = system: M. abscessus (ATCC 19977); experiment: MIC by broth microdilution, M. abscessus in Middlebrook 7H9 broth + ADC; conditions: Mycobacteroides abscessus, ATCC19977, 96 h; ATCC 19977; Middlebrook 7H9 broth + ADC growth supplement (10%); 30° C., 4 days; read-out: MIC M. abscessus 7H9
Experimental: (§2) MIC values were determined by broth microdilution method according to the CLSI guidelines with the following exceptions: MIC against A. baumannii was performed in RPMI medium supplemented with 10% FCS and MIC against M. abscessus was performed in Middlebrook 7H9 broth supplemented with Middlebrook ADC growth supplement (10%; see column “M. abscessus 7H9”). MIC forM abscessus was determined a second time in standard cation adjusted Mueller Hinton broth without growth supplement (see colum “M. abscessus MH”). All other MIC were performed in standard cation adjusted Mueller Hinton broth, supplemented with Middlebrook ADC growth supplement (5%) for the slow growing mycobacteria (M. xenopi, M. kansasii and M. avium).
(§3) The following procedure applies to all species tested, except forM xenopi. From a fresh culture plate (from overnight to several days depending on the bacteria), cells were resuspended in 0.9% (w/v) saline solution and bacterial inoculum was prepared in the respective testing medium with 5×10^5 CFU/mL. For M. xenopi, the inoculum was prepared from a fresh liquid culture (7H9+ADC). The appropriate volumes of a 10 mg/mL compound solution were directly dispensed in the 96-well assay plate using a digital dispenser to create two-fold dilution series from 32 to 0.002 μg/mL final concentration for A. baumannii and S. aureus; from 16 to 0.016 μg/mL for M. abscessus and M. avium; and from 1 to 6×10^−5 μg/mL for M. kansasii and M. xenopi. 100 μL of bacterial suspension was finally added to the compounds. Plates were covered and incubated without shaking at 35° C. for 20 hours for A. baumanii and S. aureus; at 30° C. for 4 days for M. abscessus; and at 37° C. for 7 days (at least) for M. kansasii (covered with aluminum foil to avoid light exposure), M. avium and M. xenopi. Every experiment contained an antibiotic as quality control. MIC was determined visually as the lowest concentration of a compound that prevents visible growth of the bacteria.
(§4) The in vitro activity of compounds described herein was determined against S. aureus (UAMS-1625 strain), A. baumannii (HUMC1 strain), M. abscessus (ATCC 19977), M. kansasii (ATCC 12478), M. avium (ATCC 25291), and M. xenopi (ATCC 19250).

[4] = system: M. abscessus (ATCC 19977); experiment: MIC by broth microdilution, M. abscessus in cation adjusted Mueller Hinton broth; conditions: Mycobacteroides abscessus, ATCC19977, 96 h; ATCC 19977; cation adjusted Mueller Hinton broth without growth supplement; 30° C., 4 days; read-out: MIC M. abscessus MH
Summary of the method: as §1

M. kansasii (ATCC 12478) = experiment: MIC by broth microdilution, M. kansasii; conditions: Mycobacterium kansasii, ATCC12478, 168 h, cation adjusted Mueller Hinton broth + ADC (5%), 37° C., 7 days (at least)
Experimental: as §2, §3, §4

M. xenopi (ATCC 19250) = experiment: MIC by broth microdilution, M. xenopi; conditions: Mycobacterium xenopi, ATCC19250, 168 h, cation adjusted Mueller Hinton broth + ADC (5%), 37° C., 7 days (at least)
Experimental: as §2, §3, §4

M. avium (ATCC 25291) = experiment: MIC by broth microdilution, M. avium; conditions: Mycobacterium avium, ATCC25291, 168 h, cation adjusted Mueller Hinton broth + ADC (5%), 37° C., 7 days (at least)
Experimental: as §2, §3, §4

SMILES | MIC [1] [µg/mL] | MIC [2] [µg/mL] | MIC [3] [µg/mL] | MIC [4] [µg/mL] | MIC (M. kansasii (ATCC 12478)) [µg/mL] | MIC (M. xenopi (ATCC 19250)) [µg/mL] | MIC (M. avium (ATCC 25291)) [µg/mL]
CO[C@H]1/C=C/O[C@@]2(C)Oc3c(C)c(O)c4c(c3C2=O)C2=NC3(CCN(CC(C)C)CC3)NC2=C(NC(=O)/C(C)=C\C=C\[C@H](C)[C@H](O)[C@@H](C)[C@@H](O)[C@@H](C)[C@H](OC(=O)N2CCN(c3ccccn3)CC2)[C@@H]1C)C4=O [Compound 8] | 0.25 (≈ 0.251 µM) | 0.25 | 0.125 | 0.5 (≈ 0.503 µM) | 0.0005 | 0.008 | 0.25
CO[C@H]1/C=C/O[C@@]2(C)Oc3c(C)c(O)c4c(c3C2=O)C2=NC3(CCN(CC(C)C)CC3)NC2=C(NC(=O)/C(C)=C\C=C\[C@H](C)[C@H](O)[C@@H](C)[C@@H](O)[C@@H](C)[C@H](OC(=O)N2CCC(c3ccccc3)CC2)[C@@H]1C)C4=O [Compound 1] | 0.5 (≈ 0.504 µM) | 0.25 | 0.125 | 0.5 (≈ 0.504 µM) | 0.004 | 0.03 | 0.125
CO[C@H]1/C=C/O[C@@]2(C)Oc3c(C)c(O)c4c(c3C2=O)C2=NC3(CCN(CC(C)C)CC3)NC2=C(NC(=O)/C(C)=C\C=C\[C@H](C)[C@H](O)[C@@H](C)[C@@H](O)[C@@H](C)[C@H](OC(=O)NC2CCN(Cc3ccccc3)CC2)[C@@H]1C)C4=O [Compound 14] | 0.125 (≈ 0.122 µM) | 0.004 | 0.25 | 0.25 (≈ 0.245 µM) | 0.0005 | 0.008 | 0.25
CO[C@H]1/C=C/O[C@@]2(C)Oc3c(C)c(O)c4c(c3C2=O)C2=NC3(CCN(CC(C)C)CC3)NC2=C(NC(=O)/C(C)=C\C=C\[C@H](C)[C@H](O)[C@@H](C)[C@@H](O)[C@@H](C)[C@H](OC(=O)N2CCC(N(C)c3ccccc3)CC2)[C@@H]1C)C4=O [Compound 4] | 0.5 (≈ 0.49 µM) | 0.125 | 0.25 | 1 (≈ 0.979 µM) | 0.002 | 0.016 | 0.25
